How the values were obtained:
[1] = target: cGMP-specific 3',5'-cyclic phosphodiesterase (Homo sapiens, UniProt O76074); test: DRUGMATRIX: Phosphodiesterase PDE5 enzyme inhibition (substrate: [3H]cGMP + cGMP); type: tissue-based, Platelet; settings: platelet; Not Active = under 50% inhibition at 10 µM
[2] = DRUGMATRIX: GABAA, Chloride Channel, TBOB radioligand binding (ligand: [3H] TBOB); type: cell membranes, Rattus norvegicus, Wistar, Cerebral cortex, Membrane; settings: Not Active = under 50% inhibition at 10 µM
[3] = target: Mitogen-activated protein kinase 1 (Homo sapiens, UniProt P28482); test: DRUGMATRIX: Protein Serine/Threonine Kinase, ERK2 enzyme inhibition (substrate: Myelin Basic Protein); parameters: species or system Escherichia coli; settings: Not Active = under 50% inhibition at 10 µM
[4] = target: Epidermal growth factor receptor (Homo sapiens, UniProt P00533); test: DRUGMATRIX: Protein Tyrosine Kinase, EGF Receptor enzyme inhibition (substrate: Poly(Glu:Tyr)); type: cell-based, Insect cells; settings: Not Active = under 50% inhibition at 10 µM
[5] = target: Tyrosine-protein kinase Lck (Homo sapiens, UniProt P06239); test: DRUGMATRIX: Protein Tyrosine Kinase, LCK enzyme inhibition (substrate: Poly(Glu:Tyr)); type: cell-based, Insect cells; settings: insect cells; Not Active = under 50% inhibition at 10 µM
[6] = target: T1, Calcitonin receptor (Homo sapiens, UniProt P30988); type: cell membranes, Membrane; settings: t47d; further: in other assays of this panel Not Active means under 50% inhibition at 10 µM
T1 sequence (P30988 whole entry): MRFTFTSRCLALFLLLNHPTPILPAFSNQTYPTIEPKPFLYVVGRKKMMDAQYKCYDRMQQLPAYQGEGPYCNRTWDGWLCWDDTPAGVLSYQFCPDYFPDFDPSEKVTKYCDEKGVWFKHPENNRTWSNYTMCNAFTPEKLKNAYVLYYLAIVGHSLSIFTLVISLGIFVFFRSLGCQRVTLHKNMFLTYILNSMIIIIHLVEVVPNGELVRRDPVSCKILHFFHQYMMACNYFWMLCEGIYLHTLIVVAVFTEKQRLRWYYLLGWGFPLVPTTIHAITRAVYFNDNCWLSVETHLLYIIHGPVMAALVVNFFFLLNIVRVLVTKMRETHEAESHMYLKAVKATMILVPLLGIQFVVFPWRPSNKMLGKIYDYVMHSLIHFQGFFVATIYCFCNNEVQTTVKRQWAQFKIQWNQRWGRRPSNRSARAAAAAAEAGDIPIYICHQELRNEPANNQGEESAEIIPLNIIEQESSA

[7] = target: C-C chemokine receptor type 5 (Homo sapiens, UniProt P51681); type: cell membranes, HEK293, Membrane; settings: hek293; further: in other assays of this panel Not Active means under 50% inhibition at 10 µM
Chain of C-C chemokine receptor type 5 (P51681 whole entry): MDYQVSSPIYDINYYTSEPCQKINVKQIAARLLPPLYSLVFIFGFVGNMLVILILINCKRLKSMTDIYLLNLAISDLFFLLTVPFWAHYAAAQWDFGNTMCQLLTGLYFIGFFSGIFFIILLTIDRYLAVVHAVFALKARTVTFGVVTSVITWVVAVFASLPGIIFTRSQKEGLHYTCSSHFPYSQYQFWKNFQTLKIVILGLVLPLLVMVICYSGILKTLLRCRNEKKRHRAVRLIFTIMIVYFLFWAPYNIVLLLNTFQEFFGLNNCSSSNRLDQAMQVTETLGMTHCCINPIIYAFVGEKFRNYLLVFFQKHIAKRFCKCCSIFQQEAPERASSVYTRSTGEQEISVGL

Chain of Tyrosine-protein kinase Lck (P06239 whole entry): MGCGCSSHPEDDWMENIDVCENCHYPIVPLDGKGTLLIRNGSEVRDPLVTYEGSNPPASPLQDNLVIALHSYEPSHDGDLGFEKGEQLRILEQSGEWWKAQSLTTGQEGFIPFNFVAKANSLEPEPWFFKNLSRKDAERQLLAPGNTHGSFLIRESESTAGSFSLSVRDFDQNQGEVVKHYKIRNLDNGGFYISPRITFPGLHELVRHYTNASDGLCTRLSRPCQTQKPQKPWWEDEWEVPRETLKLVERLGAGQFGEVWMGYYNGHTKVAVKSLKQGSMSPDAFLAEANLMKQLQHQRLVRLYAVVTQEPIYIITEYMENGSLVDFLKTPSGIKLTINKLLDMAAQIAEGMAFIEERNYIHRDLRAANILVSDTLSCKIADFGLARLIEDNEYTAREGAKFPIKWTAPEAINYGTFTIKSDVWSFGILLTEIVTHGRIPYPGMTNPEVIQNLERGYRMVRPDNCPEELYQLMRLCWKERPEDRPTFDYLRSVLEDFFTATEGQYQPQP
Chain of Mitogen-activated protein kinase 1 (P28482 whole entry): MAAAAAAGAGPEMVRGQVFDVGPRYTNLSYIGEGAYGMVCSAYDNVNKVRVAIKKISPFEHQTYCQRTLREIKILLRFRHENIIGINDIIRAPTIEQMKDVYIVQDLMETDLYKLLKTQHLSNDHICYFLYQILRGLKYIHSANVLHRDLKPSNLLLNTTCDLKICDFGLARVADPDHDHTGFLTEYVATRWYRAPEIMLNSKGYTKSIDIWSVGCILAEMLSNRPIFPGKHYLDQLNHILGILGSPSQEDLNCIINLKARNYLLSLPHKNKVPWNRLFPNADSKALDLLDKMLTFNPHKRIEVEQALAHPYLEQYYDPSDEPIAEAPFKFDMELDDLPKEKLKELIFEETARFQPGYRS

O=C1c2ccccc2C(=O)C1c1ccccc1 [PHENINDIONE]
Not Active: IC50 [1] | IC50 [2] | Ki [2] | IC50 [3] | IC50 ([4]; insect cells) | IC50 [5] | IC50 [6] | IC50 [7]

Clc1cc(Cl)c(OCC#CI)cc1Cl [HALOPROGIN]
Not Active: IC50 [1] | IC50 [2] | Ki [2] | IC50 [3] | IC50 ([4]; insect cells) | IC50 [5] | IC50 [6] | IC50 [7]

C[C@H]1C[C@H]2[C@@H]3CCC4=CC(=O)C=C[C@]4(C)[C@@]3(F)[C@@H](O)C[C@]2(C)[C@@]1(O)C(=O)CO [BETAMETHASONE]
Not Active: IC50 [1] | IC50 [2] | Ki [2] | IC50 [3] | IC50 ([4]; insect cells) | IC50 [5] | IC50 [6] | IC50 [7]

COc1ccc(Cl)cc1C(=O)NCCc1ccc(S(=O)(=O)NC(=O)NC2CCCCC2)cc1 [GLYBURIDE]
Not Active: IC50 [1] | IC50 [2] | Ki [2] | IC50 [3] | IC50 ([4]; insect cells) | IC50 [5] | IC50 [6] | IC50 [7]

CC1(COc2ccc(CC3SC(=O)NC3=O)cc2)CCCCC1 (stereo not drawn) [CIGLITAZONE]
Not Active: IC50 [1] | IC50 [2] | Ki [2] | IC50 [3] | IC50 [5] | IC50 [6] | IC50 [7]
4660 nM: IC50 ([4]; read-out: IC50)

Cc1ccnc2c1NC(=O)c1cccnc1N2C1CC1 [NEVIRAPINE]
Not Active: IC50 [1] | IC50 [2] | Ki [2] | IC50 [3] | IC50 ([4]; insect cells) | IC50 [5] | IC50 [6] | IC50 [7]

CNC[C@H](O)c1ccc(O)c(O)c1 [EPINEPHRINE]
Not Active: IC50 [1] | IC50 [2] | Ki [2] | IC50 [3] | IC50 ([4]; insect cells) | IC50 [5] | IC50 [6] | IC50 [7]

CN(Cc1cc(Br)cc(Br)c1N)C1CCCCC1 [BROMHEXINE]
Not Active: IC50 [1] | IC50 [2] | Ki [2] | IC50 ([4]; insect cells) | IC50 [5] | IC50 [6] | IC50 [7]

COPPER(II) OXIDE
Not Active: IC50 [1] | Ki [1] | IC50 [2] | Ki [2] | IC50 [3] | Ki [3] | IC50 ([4]; insect cells) | Ki ([4]; insect cells) | IC50 [5] | Ki [5] | IC50 [6] | Ki [6] | IC50 [7] | Ki [7]

CCN1C[C@]2(COC)[C@H](O)C[C@H](OC)[C@@]34[C@@H]5C[C@@]6(O)[C@H](OC(=O)c7ccccc7)[C@@H]5[C@@](OC(C)=O)([C@@H]([C@H](OC)[C@H]23)[C@@H]14)[C@@H](O)[C@@H]6OC [ACONITINE]
Not Active: IC50 [1] | IC50 [2] | Ki [2] | IC50 [3] | IC50 ([4]; insect cells) | IC50 [5] | IC50 [6] | IC50 [7]

COc1ccc(C[C@H](N)C(=O)N[C@H]2[C@@H](O)[C@H](n3cnc4c(N(C)C)ncnc43)O[C@@H]2CO)cc1 [PUROMYCIN]
Not Active: IC50 [1] | IC50 [2] | Ki [2] | IC50 [3] | IC50 ([4]; insect cells) | IC50 [5] | IC50 [6] | IC50 [7]

OC[C@H]1OC2C3[C@@H](CO)OC(O[C@H]4[C@H](O)[C@@H](O)[C@@H](O[C@H]5[C@H](O)[C@@H](O)[C@@H](O[C@H]6[C@H](O)[C@@H](O)[C@@H](O[C@H]7[C@H](O)[C@@H](O)[C@@H](O[C@H]8[C@H](O)[C@@H](O)[C@@H](O[C@H]9[C@H](O)[C@@H](O)C(OC1[C@H](O)[C@H]2O)O[C@@H]9CO)O[C@@H]8CO)O[C@@H]7CO)O[C@@H]6CO)O[C@@H]5CO)O[C@@H]4CO)[C@H](O)[C@H]3O
Not Active: IC50 [1] | IC50 [2] | Ki [2] | IC50 [3] | IC50 ([4]; insect cells) | IC50 [5] | IC50 [6] | IC50 [7]

NC(N)=Nc1nc(CSCCC(N)=NS(N)(=O)=O)cs1 [FAMOTIDINE]
Not Active: IC50 [1] | IC50 [2] | Ki [2] | IC50 [3] | IC50 ([4]; insect cells) | IC50 [5] | IC50 [6] | IC50 [7]

C[N+](C)(C)CCOP(=O)([O-])OC[C@H](O)CO
Not Active: IC50 [1] | IC50 [2] | Ki [2] | IC50 [3] | IC50 ([4]; insect cells) | IC50 [5] | IC50 [6] | IC50 [7]

COc1cc(/C=C/C(=O)O)ccc1O [FERULATE]
Not Active: IC50 [1] | IC50 [2] | Ki [2] | IC50 [3] | IC50 ([4]; insect cells) | IC50 [5] | IC50 [6] | IC50 [7]

NC(=O)NC(=O)Cc1ccccc1 [PHENACEMIDE]
Not Active: IC50 [1] | IC50 [2] | Ki [2] | IC50 [3] | IC50 ([4]; insect cells) | IC50 [5] | IC50 [6] | IC50 [7]

NC(=O)CN1CCCC1=O
Not Active: IC50 [1] | IC50 [2] | Ki [2] | IC50 [3] | IC50 ([4]; insect cells) | IC50 [5] | IC50 [6] | IC50 [7]

CC(C)Cn1cnc2c(N)nc3ccccc3c21 [IMIQUIMOD]
Not Active: IC50 [1] | IC50 [2] | Ki [2] | IC50 [3] | IC50 ([4]; insect cells) | IC50 [5] | IC50 [6] | IC50 [7]

CCO [ALCOHOL]
Not Active: IC50 [1] | IC50 [2] | Ki [2] | IC50 [3] | IC50 ([4]; insect cells) | IC50 [5] | IC50 [6] | IC50 [7]

C[C@H](C(=O)O)c1ccc2oc(-c3ccc(F)cc3)nc2c1 [FLUNOXAPROFEN]
Not Active: IC50 [1] | IC50 [2] | Ki [2] | IC50 [3] | IC50 ([4]; insect cells) | IC50 [5] | IC50 [6] | IC50 [7]

O=C(O)c1ccccc1 [BENZOIC ACID]
Not Active: IC50 [1] | IC50 [2] | Ki [2] | IC50 [3] | IC50 ([4]; insect cells) | IC50 [5] | IC50 [6] | IC50 [7]

CN(CCOc1ccc(C[C@H](Nc2ccccc2C(=O)c2ccccc2)C(=O)O)cc1)c1ccccn1
Not Active: IC50 [1] | IC50 [2] | Ki [2] | IC50 [3] | IC50 [5] | IC50 [6] | IC50 [7]
10900 nM: IC50 ([4]; read-out: IC50)

O=c1[nH]cnc2c1ncn2[C@H]1CC[C@@H](CO)O1 [DIDANOSINE]
Not Active: IC50 [1] | IC50 [2] | Ki [2] | IC50 [3] | IC50 ([4]; insect cells) | IC50 [5] | IC50 [6] | IC50 [7]

CC(C)(c1ccc(O)cc1)c1ccc(O)cc1 [BISPHENOL A]
Not Active: IC50 [1] | IC50 [2] | Ki [2] | IC50 [3] | IC50 ([4]; insect cells) | IC50 [5] | IC50 [6] | IC50 [7]

ClC1=C(Cl)[C@]2(Cl)[C@@H]3[C@@H]4C[C@@H]([C@H]5O[C@@H]45)[C@@H]3[C@@]1(Cl)C2(Cl)Cl [DIELDRIN]
Not Active: IC50 [1] | IC50 [3] | IC50 ([4]; insect cells) | IC50 [5] | IC50 [6] | IC50 [7]
335 nM: IC50 ([2]; read-out: IC50)
300 nM: Ki ([2]; read-out: Ki)

c1ccc(Cn2ccnc2)cc1
Not Active: IC50 [1] | IC50 [2] | Ki [2] | IC50 [3] | IC50 ([4]; insect cells) | IC50 [5] | IC50 [6] | IC50 [7]

C[C@]12CC[C@@H](O)C[C@@H]1CC[C@@H]1[C@@H]2CC[C@]2(C)C(=O)CC[C@@H]12 [ANDROSTERONE]
Not Active: IC50 [1] | IC50 [2] | Ki [2] | IC50 [3] | IC50 ([4]; insect cells) | IC50 [5] | IC50 [6] | IC50 [7]

C[C@@H]1[C@H](O)[C@@H](C)/C=C/C=C/C=C/C=C/C=C/C=C/C=C/[C@H](O[C@@H]2O[C@H](C)[C@@H](O)[C@H](N)[C@@H]2O)C[C@@H]2O[C@](O)(C[C@@H](O)C[C@@H](O)[C@H](O)CC[C@@H](O)C[C@@H](O)CC(=O)O[C@H]1C)C[C@H](O)[C@H]2C(=O)O [AMPHOTERICIN B]
Not Active: IC50 [1] | IC50 [2] | Ki [2] | IC50 ([4]; insect cells) | IC50 [5] | IC50 [6] | IC50 [7]

Reference: ChEMBL document CHEMBL1909046, “DrugMatrix in vitro pharmacology data”
